For 22 molecules, IC50 results are on record in patent US20230146675A1, “PYRIMIDO[5,4-d]PYRIMIDINE DERIVATIVES AS ENT INHIBITORS FOR THE TREATMENT OF CANCERS, AND COMBINATION THEREOF WITH ADENOSINE RECEPTOR ANTAGONISTS” (ITEOS BELGIUM SA, priority 2020, published 2023).

Where only a bound is given, the exact number is not on record here.

The target in this experiment is T1, human ENT1 (Homo sapiens, UniProt Q99808).
T1 sequence (Q99808 1-456): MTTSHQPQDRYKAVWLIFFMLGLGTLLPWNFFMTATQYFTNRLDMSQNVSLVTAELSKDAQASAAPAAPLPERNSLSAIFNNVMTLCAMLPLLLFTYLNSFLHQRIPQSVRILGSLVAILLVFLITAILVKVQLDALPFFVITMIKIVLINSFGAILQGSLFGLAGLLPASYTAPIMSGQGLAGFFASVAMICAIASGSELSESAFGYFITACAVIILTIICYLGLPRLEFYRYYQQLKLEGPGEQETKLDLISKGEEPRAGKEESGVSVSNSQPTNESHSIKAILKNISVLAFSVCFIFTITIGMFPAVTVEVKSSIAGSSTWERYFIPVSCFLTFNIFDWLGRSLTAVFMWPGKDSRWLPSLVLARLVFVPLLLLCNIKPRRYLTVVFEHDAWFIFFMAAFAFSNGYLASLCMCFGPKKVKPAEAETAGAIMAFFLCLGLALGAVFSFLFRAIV
The experiment can be described thus: ENT1 binding assay (competition with Sahenta-DY647 on JAR cells). Also on record: JAR cells expressing ENT1 were bought from ATCC; host or cells: JAR cells. The note with it: binned IC50. In a few lines: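 JAR cells were incubated with test compounds and the fluorescent ligand Sahenta-DY647 in competition. Plates were washed twice by centrifugation (4 min, 400 rcf, 4 °C). Binding potency was derived from the final fluorescence.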
In turn, `COCCN(CCOC)c1nc(N2CCC(OC)CC2)c2nc(N3CCN(c4ncccc4N)CC3)nc(N3CCN(C)C(=O)C3)c2n1` [Compound 293, 4-(2-(4-(3-aminopyridin-2-yl)piperazin-1-yl)-6-(bis(2-methoxyethyl)amino)-8-(4-methoxypiperidin-1-yl)pyrimido[5,4-d]pyrimidin-4-yl)-1-methylpiperazin-2-one] gave an IC50 of 100 to 500 nM.

For `COCCN(CCOC)c1nc(N2CCN(C)C(=O)C2)c2nc(N3CCN(c4ncccc4N)CC3)nc(N3CCC(OC)CC3)c2n1` [Compound 294, 4-(6-(4-(3-aminopyridin-2-yl)piperazin-1-yl)-2-(bis(2-methoxyethyl)amino)-8-(4-methoxypiperidin-1-yl)pyrimido[5,4-d]pyrimidin-4-yl)-1-methylpiperazin-2-one], the IC50 is less than 100 nM.

Regarding `COCCN(CCOC)c1nc(N2CCC(OC)CC2)c2nc(N3CCn4ccnc4C3)nc(N3CCN(C)C(=O)C3)c2n1` [Compound 295, 4-(6-(bis(2-methoxyethyl)amino)-2-(5,6-dihydroimidazo[1,2-a]pyrazin-7(8H)-yl)-8-(4-methoxypiperidin-1-yl)pyrimido[5,4-d]pyrimidin-4-yl)-1-methylpiperazin-2-one], the IC50 lay within 100 to 500 nM.

Turning to `COCCN(CCOC)c1nc(N2CCN(C)C(=O)C2)c2nc(N3CCn4ccnc4C3)nc(N3CCC(OC)CC3)c2n1` [Compound 296, 4-(2-(bis(2-methoxyethyl)amino)-6-(5,6-dihydroimidazo[1,2-a]pyrazin-7(8H)-yl)-8-(4-methoxypiperidin-1-yl)pyrimido[5,4-d]pyrimidin-4-yl)-1-methylpiperazin-2-one], the concentration for half-maximal inhibition (IC50) fell in the range of 100 to 500 nM.

Consider `COCCN(CCOC)c1nc(N2CCC(OC)CC2)c2nc(N3CCn4cncc4C3)nc(N3CCN(C)C(=O)C3)c2n1` [Compound 297, 4-(6-(bis(2-methoxyethyl)amino)-2-(5,6-dihydroimidazo[1,5-a]pyrazin-7(8H)-yl)-8-(4-methoxypiperidin-1-yl)pyrimido[5,4-d]pyrimidin-4-yl)-1-methylpiperazin-2-one], for which the 50% inhibitory concentration (IC50) lay in the range of 100 to 500 nM.

`COCCN(CCOC)c1nc(N2CCN(C)C(=O)C2)c2nc(N3CCn4cncc4C3)nc(N3CCC(OC)CC3)c2n1` [Compound 298, 4-(2-(bis(2-methoxyethyl)amino)-6-(5,6-dihydroimidazo[1,5-a]pyrazin-7(8H)-yl)-8-(4-methoxypiperidin-1-yl)pyrimido[5,4-d]pyrimidin-4-yl)-1-methylpiperazin-2-one] came in with an IC50 of 500 to 1000 nM.

`COCCN(CCOC)c1nc(N2CCN(C)C(=O)C2)c2nc(N3CCn4cnnc4C3)nc(N3CCC(OC)CC3)c2n1` [Compound 299, 4-(2-(bis(2-methoxyethyl)amino)-6-(5,6-dihydro-[1,2,4]triazolo[4,3-a]pyrazin-7(8H)-yl)-8-(4-methoxypiperidin-1-yl)pyrimido[5,4-d]pyrimidin-4-yl)-1-methylpiperazin-2-one] registered an IC50 of 100 to 500 nM.

In turn, `CCN(CCN1CCCC1)c1nc(N2CCN(C)C(=O)C2)c2nc(N(CCOC)Cc3cc(OC)c(OC)c(OC)c3)nc(N3CCC(OC)CC3)c2n1` [Compound 300, 4-(2-(ethyl(2-(pyrrolidin-1-yl)ethyl)amino)-6-((2-methoxyethyl)(3,4,5-trimethoxybenzyl)amino)-8-(4-methoxypiperidin-1-yl)pyrimido[5,4-d]pyrimidin-4-yl)-1-methylpiperazin-2-one] had an IC50 of 100 to 500 nM.

In turn, `COCCN(CCOC)c1nc(N2CCn3nc(C)nc3C2)c2nc(N(CCOC)CCOC)nc(N3CCN(C)C(=O)C3)c2n1` [Compound 301, 4-(2,6-bis(bis(2-methoxyethyl)amino)-8-(2-methyl-5,6-dihydro-[1,2,4]triazolo[1,5-a]pyrazin-7(8H)-yl)pyrimido[5,4-d]pyrimidin-4-yl)-1-methylpiperazin-2-one] yielded an IC50 of less than 100 nM.

For `COCCN(Cc1ccc(OC)c(OC)c1OC)c1nc(N2CCN(C)C(=O)C2)c2nc(N(CCOC)CCOC)nc(N3CCC(OC)CC3)c2n1` [Compound 302, 4-(6-(bis(2-methoxyethyl)amino)-2-((2-methoxyethyl)(2,3,4-trimethoxybenzyl)amino)-8-(4-methoxypiperidin-1-yl)pyrimido[5,4-d]pyrimidin-4-yl)-1-methylpiperazin-2-one], the half-maximal inhibitory concentration (IC50) was less than 100 nM.

`COCCN(CCOC)c1nc(N2CCN(C)C(=O)C2)c2nc(N(CCOC)Cc3ccc(OC)c(OC)c3OC)nc(N3CCC(OC)CC3)c2n1` [Compound 303, 4-(2-(bis(2-methoxyethyl)amino)-6-((2-methoxyethyl)(2,3,4-trimethoxybenzyl)amino)-8-(4-methoxypiperidin-1-yl)pyrimido[5,4-d]pyrimidin-4-yl)-1-methylpiperazin-2-one] showed an IC50 of less than 100 nM.

`COCCN(Cc1ccc(OC)c(OC)c1OC)c1nc(N2CCC(OC)CC2)c2nc(N(CCO)CCO)nc(N3CCN(C)C(=O)C3)c2n1` [Compound 304, 4-(2-(bis(2-hydroxyethyl)amino)-6-((2-methoxyethyl)(2,3,4-trimethoxybenzyl)amino)-8-(4-methoxypiperidin-1-yl)pyrimido[5,4-d]pyrimidin-4-yl)-1-methylpiperazin-2-one] came in with an IC50 of less than 100 nM.

Molecule `COCCN(Cc1ccc(OC)c(OC)c1OC)c1nc(N2CCN(C)C(=O)C2)c2nc(N(CCO)CCO)nc(N3CCC(OC)CC3)c2n1` [Compound 305, 4-(6-(bis(2-hydroxyethyl)amino)-2-((2-methoxyethyl)(2,3,4-trimethoxybenzyl)amino)-8-(4-methoxypiperidin-1-yl)pyrimido[5,4-d]pyrimidin-4-yl)-1-methylpiperazin-2-one] showed an IC50 of less than 100 nM.

In turn, `COCCN(CCO)c1nc(N2CCN(C)C(=O)C2)c2nc(N(CCO)CCOC)nc(N3CCC(OC)CC3)c2n1` [Compound 306, 4-(2,6-bis((2-hydroxyethyl)(2-methoxyethyl)amino)-8-(4-methoxypiperidin-1-yl)pyrimido[5,4-d]pyrimidin-4-yl)-1-methylpiperazin-2-one] returned a half-maximal inhibitory concentration (IC50) of 100 to 500 nM.

For `COCCN(CCOC)c1nc(N2CCC(OC)CC2)c2nc(N(CCO)CCO)nc(N3CC(=O)N(C)C(=O)C3)c2n1` [Compound 307, 4-(2-(bis(2-hydroxyethyl)amino)-6-(bis(2-methoxyethyl)amino)-8-(4-methoxypiperidin-1-yl)pyrimido[5,4-d]pyrimidin-4-yl)-1-methylpiperazine-2,6-dione], the IC50 is less than 100 nM.

Consider `COCCN(CCOC)c1nc(N2CC(=O)N(C)C(=O)C2)c2nc(N(CCO)CCO)nc(N3CCC(OC)CC3)c2n1` [Compound 308, 4-(6-(bis(2-hydroxyethyl)amino)-2-(bis(2-methoxyethyl)amino)-8-(4-methoxypiperidin-1-yl)pyrimido[5,4-d]pyrimidin-4-yl)-1-methylpiperazine-2,6-dione], for which the IC50 was less than 100 nM.

On to `COCCN(CCOC)c1nc(N2CCC(OC)CC2)c2nc(N(CCO)CCO)nc(N3CC(=O)N(C)C(C)C3)c2n1` (stereo not shown) [Compound 309, 4-(2-(bis(2-hydroxyethyl)amino)-6-(bis(2-methoxyethyl)amino)-8-(4-methoxypiperidin-1-yl)pyrimido[5,4-d]pyrimidin-4-yl)-1,6-dimethylpiperazin-2-one], for which the half-inhibitory concentration (IC50) lay within 100 to 500 nM.

The molecule `COCCN(CCOC)c1nc(N2CC(=O)N(C)C(C)C2)c2nc(N(CCO)CCO)nc(N3CCC(OC)CC3)c2n1` (stereo not shown) [Compound 310, 4-(6-(bis(2-hydroxyethyl)amino)-2-(bis(2-methoxyethyl)amino)-8-(4-methoxypiperidin-1-yl)pyrimido[5,4-d]pyrimidin-4-yl)-1,6-dimethylpiperazin-2-one] registered an IC50 of 500 to 1000 nM.

Take `COCCN(CCOC)c1nc(N2CCC(OC)CC2)c2nc(N(CCO)CCO)nc(N3CC(=O)N(C)C(C)(C)C3)c2n1` [Compound 311, 4-(2-(bis(2-hydroxyethyl)amino)-6-(bis(2-methoxyethyl)amino)-8-(4-methoxypiperidin-1-yl)pyrimido[5,4-d]pyrimidin-4-yl)-1,6,6-trimethylpiperazin-2-one]: the IC50 was less than 100 nM.

In turn, `COCCN(CCOC)c1nc(N2CC(=O)N(C)C(C)(C)C2)c2nc(N(CCO)CCO)nc(N3CCC(OC)CC3)c2n1` [Compound 312, 4-(6-(bis(2-hydroxyethyl)amino)-2-(bis(2-methoxyethyl)amino)-8-(4-methoxypiperidin-1-yl)pyrimido[5,4-d]pyrimidin-4-yl)-1,6,6-trimethylpiperazin-2-one] came in with an IC50 of 100 to 500 nM.

Consider `COCCN(CCOC)c1nc(N2CCC(OC)CC2)c2nc(N(CCO)CCO)nc(N3CC(=O)N4CCCC4C3)c2n1` (stereo not shown) [Compound 313, 2-(2-(bis(2-hydroxyethyl)amino)-6-(bis(2-methoxyethyl)amino)-8-(4-methoxypiperidin-1-yl)pyrimido[5,4-d]pyrimidin-4-yl)hexahydropyrrolo[1,2-a]pyrazin-4(1H)-one], for which the IC50 was in the range of 100 to 500 nM.

In the case of `COCCN(CCOC)c1nc(N2CC(=O)N3CCCC3C2)c2nc(N(CCO)CCO)nc(N3CCC(OC)CC3)c2n1` (stereo not shown) [Compound 314, 2-(6-(bis(2-hydroxyethyl)amino)-2-(bis(2-methoxyethyl)amino)-8-(4-methoxypiperidin-1-yl)pyrimido[5,4-d]pyrimidin-4-yl)hexahydropyrrolo[1,2-a]pyrazin-4(1H)-one], the IC50 was 500 to 1000 nM.

What is called IC50 is the concentration that inhibits the measured activity by half. A higher IC50 goes with weaker potency.
